These results are taken from PubChem BioAssay (NCI).

Molecules are shown by their SMILES.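 A five-concentration, 48-hour dose response in 96-well plates underlies each endpoint, interpolated linearly between surrounding concentrations. At the GI50, growth is halved. The concentration for full growth arrest is given as TGI.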

Test in all cases: NCI anticancer screen, dose series, 48 h
The test system of assay [1] is HS 578T breast.
Assay [2] relates to NCI-H23 lung.
The subject of assay [3] is SK-MEL-28 melanoma.
In assay [4] the test system is 786-0 renal.
Assay [5] has as its system T-47D breast.
Assay [6] concerns OVCAR-5 ovarian.
Assay [7] concerns UO-31 renal.
The test system of assay [8] is DU-145 prostate.
The test system of assay [9] is A498 renal.
In assay [10] the test system is HCC-2998 colon.

With `CC[C@@H](c1ccc(O)c(O)c1)[C@@H](CC)c1ccc(O)c(O)c1`, the GI50 in assay [1] was 73.3 µM; in [2], 14.2 µM; in [3], 19.1 µM; in assay [4], 20.4 µM; in assay [5], 2.48 µM; in assay [6], 19.5 µM. The GI50 was 4.12 µM in [7], 12.9 µM in [8], 44.4 µM in assay [9] and 17.4 µM in [10]. The TGI in [1] was > 100 µM; in assay [2], 31.8 µM; in assay [3], 44.6 µM; in assay [4], 38.2 µM; in assay [5] it was 7.96 µM; in assay [6], 37.8 µM. In addition, the TGI was 21.4 µM in assay [7], 26.2 µM in [8], > 100 µM in [9] and 33.1 µM in [10].

`NC(=S)N/N=C\c1nccc2c(C(F)(F)F)cccc12`: the GI50 in assay [1] was 1.36 µM; in [2] it was 0.446 µM; in assay [3], 0.57 µM; in assay [4], 0.3 µM; in [5], 0.335 µM; in assay [6] it was 0.445 µM. Further, the GI50 in assay [7] was 0.245 µM; in assay [8], 0.292 µM; in assay [9] it was 0.433 µM; in assay [10], 0.411 µM. Also, the TGI in assay [1] is > 58.8 µM; in assay [2], > 49 µM; in assay [3] it was 12.7 µM; in assay [4] it was 0.957 µM; in assay [5], 25.7 µM; in assay [6] it was 27.6 µM. Also, the TGI in assay [7] was 3.11 µM; in assay [8] it was > 39.3 µM; in assay [9] it was 10.6 µM; in assay [10], 15.4 µM.

`COC(=O)c1cc2oc(/C=C3/SC(=S)N(NC(C)=O)C3=O)cc2n1C`: the GI50 in assay [1] is 15.2 µM; in assay [2], 16.6 µM; in [3], 40.3 µM; in [4], 20.1 µM; in [5], 29.6 µM; in assay [6], 21.7 µM. The GI50 is 14.5 µM in assay [7], 8.76 µM in assay [8], 10.8 µM in [9] and 12 µM in assay [10]. The TGI in [1] is 59.2 µM; in assay [2], 50.1 µM; in [3], > 100 µM; in assay [4], 42.6 µM; in assay [5] it was 90.7 µM; in [6] it was 54.9 µM. In addition, the TGI in assay [7] is 92.7 µM; in assay [8] it was 25.4 µM; in assay [9], 28.1 µM; in [10] it was 29.5 µM.

Regarding `Cc1ccc(NC2=C3CCCCC3OC2=O)cc1` (stereo not given), the GI50 was > 100 µM in assay [1]; 60.5 µM in [2]; > 100 µM in [3]; > 100 µM in [4]; 29.3 µM in assay [5]; > 100 µM in assay [6]. For the same molecule, the GI50 in [7] is 27.6 µM; in assay [8], 88.8 µM; in assay [9], 65.9 µM; in assay [10], > 100 µM. Moreover, the TGI in assay [1], in assay [2], in assay [3], in assay [4], in [5] and in [6] was > 100 µM in each case. For the same molecule, the TGI in [7], in assay [8], in assay [9] and in [10] was > 100 µM throughout.

Regarding `COc1c2ccccc2c(OC)c2[nH]c(=O)ccc12`, the GI50 in [1] is 2.68 µM; in assay [2], 0.925 µM; in assay [3], 2.37 µM; in assay [4], 56.1 µM; in assay [5] it was 21.5 µM; in assay [6], 8.02 µM. The GI50 in assay [7] was 8.13 µM; in [8], 1.54 µM; in assay [9], 2.04 µM; in assay [10] it was 13.2 µM. Moreover, the TGI is 20.7 µM in assay [1]; 3.47 µM in assay [2]; 5.1 µM in [3]; > 100 µM in assay [4]; > 100 µM in assay [5]; > 85.4 µM in assay [6]. For the same molecule, the TGI in [7] is 97.3 µM; in assay [8] it was 3.32 µM; in [9], 4.75 µM; in [10], > 58.8 µM.

On to `Br[Se]c1ccccn1`, for which the TGI in [1] was 40.3 µM; in assay [2] it was 39.3 µM; in assay [3] it was 37.5 µM; in assay [4], 32.6 µM; in assay [5], 54.1 µM; in assay [6] it was 35.1 µM. The TGI stood at 31.2 µM in assay [7], 30.8 µM in assay [8], 34 µM in assay [9] and 35.5 µM in assay [10].

Consider `O=C1CSC(=S)N1/N=C/c1ccc(Cl)c([N+](=O)[O-])c1`, for which the TGI was > 100 µM in [1]; 31.9 µM in [2]; 62.1 µM in assay [3]; > 100 µM in assay [4]; 59.3 µM in [5]; > 100 µM in [6]. The TGI in assay [7] was 71 µM; in [8], > 100 µM; in [9], > 100 µM; in [10], 27.5 µM.

Take `CC1(C)[C@@H](NOCCCN)CC[C@]2(C)[C@H]3C(=O)C=C4[C@@H]5C[C@](C)(C(=O)O)CC[C@]5(C)CC[C@@]4(C)[C@]3(C)CC[C@@H]12`: the GI50 in assay [1] was 4.23 µM; in assay [2], 10.7 µM; in [3], 4.08 µM; in assay [4], 6.23 µM; in assay [5], 3.42 µM; in assay [6], 14.1 µM. The GI50 was 7.44 µM in assay [7], 4.63 µM in assay [8], 17.8 µM in assay [9] and 3.59 µM in assay [10]. Besides, the TGI was determined as 50 µM in [1]; 64.7 µM in [2]; 13.6 µM in assay [3]; 19.2 µM in assay [4]; 22.4 µM in assay [5]; 28.1 µM in assay [6]. Moreover, the TGI in assay [7] was found to be 20.4 µM; in assay [8] it was 15.4 µM; in assay [9], 43 µM; in assay [10], 13.1 µM.
